# Results as given in patent US5470854A, “2-phenylbenzo[B]furans, process for their manufacture and pharmaceutical preparations containing them” (Schering Aktiengesellschaft, priority 1991, dated 1995).
# Columns and labels:
# oestrogen receptor = target: T1, oestrogen receptor (Bos taurus, UniProt P49884); assay: Relative bonding affinity to the oestrogen receptor (competition with 3H-17β-Estradiol); format: binding, calf; conditions: for RBA* (relative bonding affinity to the oestrogen receptor): calves' uteri, in relation to 17β-estradiol = 100
# T1 construct: oestrogen receptor of a calf's uterus; from tissue; host or cells: calf uterus
# T1 sequence (P49884 1-596): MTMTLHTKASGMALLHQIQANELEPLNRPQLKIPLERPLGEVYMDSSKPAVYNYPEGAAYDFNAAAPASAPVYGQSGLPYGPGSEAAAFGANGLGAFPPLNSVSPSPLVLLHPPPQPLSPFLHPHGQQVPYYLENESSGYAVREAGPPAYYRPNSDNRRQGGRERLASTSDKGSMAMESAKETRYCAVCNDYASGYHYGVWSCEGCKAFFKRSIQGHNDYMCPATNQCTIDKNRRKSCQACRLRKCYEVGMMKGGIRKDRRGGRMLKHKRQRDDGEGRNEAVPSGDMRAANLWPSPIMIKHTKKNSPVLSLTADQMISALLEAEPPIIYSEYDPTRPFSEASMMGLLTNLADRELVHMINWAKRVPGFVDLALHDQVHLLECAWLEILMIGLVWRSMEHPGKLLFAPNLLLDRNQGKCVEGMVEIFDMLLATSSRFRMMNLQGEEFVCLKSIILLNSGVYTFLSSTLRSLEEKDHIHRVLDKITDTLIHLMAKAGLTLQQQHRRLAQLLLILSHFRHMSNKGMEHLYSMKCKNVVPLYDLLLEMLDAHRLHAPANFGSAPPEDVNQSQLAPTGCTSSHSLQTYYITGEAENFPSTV
# From the text: The test methodology is described in Cancer Treatment Reviews 1984, 11, 147.
# *Relative bonding affinities to the oestrogen receptor of calves' uteri,
# in relation to 17β-estradiol = 100
# [1] = system: human MCF-7 mamma carcinoma cells; assay: Effect on cell growth of MCF-7 cells; format: cell-based; conditions: for activity at 10 µM / activity at 1 µM / activity at 0.1 µM / activity at 5 µM: Homo sapiens, MCF7, mean of 16 individual results, read-out: T/C (corrected); for activity at 10 µM: 1 × 10^-5 M; for activity at 1 µM: 1 × 10^-6 M; for activity at 0.1 µM: 1 × 10^-7 M; for activity at 5 µM: 5 × 10^-6 M
# uterus of infantile mice [2] = assay: Uterotrophic test (in-vivo test on infantile mice); conditions: uterus dry weight (mg)/body weight (g) × 100
# Description: (§1) The effectiveness of these compounds was found in an in-vivo test on infantile mice. This test is extensively described in Cancer Treatment Reviews 1984, 11, 147, and J. Med. Chem., 1984, 27, 1439.
# (§2) ^a dosage/animal, administered s.c. on three consecutive days in oliv
# (§3) ^b uterus dry weight (mg)/body weight (g) × 100, determined 24
# (§4) hours after the final injection.
# uterus of infantile mice [3] = assay: Anti-uterotrophic test (in-vivo test on infantile mice); conditions: simultaneous 0.4 μg oestron/animal/day; for anti-uterotrophic test, effect: uterus dry weight (mg)/body weight (g) × 100
# Description: as §1, §2, §3, §4
# ^c simultaneous administration of 0.4 μg oestron/animal/day.
# [4] = 1 μg/animal s.c. on three consecutive days
# [5] = 5 μg/animal s.c. on three consecutive days
# [6] = 25 μg/animal s.c. on three consecutive days
# [7] = 125 μg/animal s.c. on three consecutive days
SMILES,"affinity to the oestrogen (estradiol) receptor, in words (oestrogen receptor)",RBA* (relative bonding affinity to the oestrogen receptor) (oestrogen receptor),"effect on the growth of MCF-7 / hormone-dependent tumour cells, in words [1]",activity at 10 µM [1] [%],activity at 1 µM [1] [%],activity at 0.1 µM [1] [%],activity at 5 µM [1] [%],"uterotrophic test, effect (uterus of infantile mice [2]; [4]) [mg/g × 100]","uterotrophic test, effect (uterus of infantile mice [2]; [5]) [mg/g × 100]","uterotrophic test, effect (uterus of infantile mice [2]; [6]) [mg/g × 100]","uterotrophic test, effect (uterus of infantile mice [2]; [7]) [mg/g × 100]","anti-uterotrophic test, inhibition (uterus of infantile mice [3]; 5 μg/animal s.c.) [%]","anti-uterotrophic test, effect (uterus of infantile mice [3]; 5 μg/animal s.c.) [mg/g × 100]","anti-uterotrophic test, effect (uterus of infantile mice [3]; 25 μg/animal s.c.) [mg/g × 100]","anti-uterotrophic test, effect (uterus of infantile mice [3]; 125 μg/animal s.c.) [mg/g × 100]","anti-uterotrophic test, inhibition (uterus of infantile mice [3]; 25 μg/animal s.c.) [%]","anti-uterotrophic test, inhibition (uterus of infantile mice [3]; 125 μg/animal s.c.) [%]"
"CCCc1c(-c2ccc(O)cc2)sc2ccc(O)cc12 [Compound 106a, 5-hydroxy-2-(4-hydroxyphenyl)-3-propylbenzo[b]thiophen]",greatest affinity in relation to estradiol,"21,9",strongly inhibiting effect,0.3 ± 3.5,35 ± 10.4,77.1 ± 21.4,2.3 ± 4.1,25.4 ± 6.2,32.7 ± 5.0,35.3 ± 7.5,51.2 ± 9.9,27,34.4 ± 7.1,48.0 ± 4.2,48.8 ± 4.1,,
"CCCc1c(-c2ccc(O)cc2)sc2cc(O)ccc12 [Compound 106b, 6-hydroxy-2-(4-hydroxyphenyl)-3-propylbenzo[b]thiophen]",greatest affinity in relation to estradiol,"25,1",strongly inhibiting effect,1.8 ± 3.1,69 ± 15.1,81.7 ± 17.5,3.6 ± 3,16.6 ± 4.6,22.4 ± 3.1,24.5 ± 4.8,35.1 ± 4.9,34,37.0 ± 6.5,35.3 ± 6.7,34.8 ± 6.2,39,40
"Oc1ccc(-c2sc3cc(O)ccc3c2CCCCCCN2CCCCC2)cc1 [Compound 119b, 6-hydroxy-2-(4-hydroxyphenyl)-3-(6-N-piperidinylhexyl)benzo[b]thiophen]",,"7,1",strongly inhibiting effect,-13.5 ± 3.2,48.1 ± 12.4,18.8 ± 7.2,2 ± 3.6,19.8 ± 3.1,20.7 ± 5.0,19.4 ± 2.1,34.2 ± 9.5,73,26.1 ± 5.4,22.8 ± 2.6,30.0 ± 5.6,65,61
